The values below are quoted from earlier work in patent US10335367B2, “Use of selected anticholinergic zwitterions” (Bodor Laboratories, Inc., priority 2015, dated 2019).

Like-named read-outs stand apart in the source and are kept apart here.

Data set [1] concerns progression of myopia. As to conditions: 2% ophthalmic gel; school-aged children.
Data set [2] relates to myopia progression.

Turning to `CN1CCN(CC(=O)N2c3ccccc3C(=O)Nc3cccnc32)CC1` [Pirenzepine], the “slowing the progression of myopia” value in data set [1] is listed as “found effective”.
Turning to `CN1[C@@H]2CC[C@H]1C[C@@H](OC(=O)C(CO)c1ccccc1)C2` (stereo partly shown) [atropine], the “mean myopia progression at 2 years” value in data set [2] (0.01% atropine) was 0.24 D/year; in data set [2] (0.1% atropine), 0.19 D/year; in data set [2] (0.5% atropine), 0.15 D/year.
